Test results published in ChEMBL document CHEMBL5303573, “Mapping human microbiome drug metabolism by gut bacteria and their genes” (Nature, 2019).

Details: limosilactobacillus reuteri cf48-3a, 12 h, 2 µM
Description: The drug is tested on Lactobacillus reuteri CF48-3A strain: BEI HM-102 for biotransformation. The drug concentrations were measured before and after a 12-h incubation by liquid-chromatography-coupled mass spectrometry (LC–MS)

Compound	Bacterial Biotransformation
Cc1cc(C)cc(OCC2CNC(=O)O2)c1 (stereo unspecified) [METAXALONE]	Compound NOT metabolized
O=C(O[C@H]1C[C@H]2CC[C@@H](C1)[N+]21CCCC1)C(O)(c1ccccc1)c1ccccc1.[Cl-] [TROSPIUM CHLORIDE]	Compound NOT metabolized
Cc1ccc(/C(=C\CN2CCCC2)c2ccccn2)cc1 [TRIPROLIDINE]	Compound NOT metabolized
COc1ccc(/C=C/C(=O)Nc2ccccc2C(=O)O)cc1OC	Compound NOT metabolized

Test: The drug is tested on Bacteroides coprophilus strain: DSM18228 for biotransformation. The drug concentrations were measured before and after a 12-h incubation by liquid-chromatography-coupled mass spectrometry (LC–MS)
Details: 2 µM

Compound	Bacterial Biotransformation
Cc1ccc(/C(=C\CN2CCCC2)c2ccccn2)cc1 [TRIPROLIDINE]	Compound NOT metabolized
COc1ccc(/C=C/C(=O)Nc2ccccc2C(=O)O)cc1OC	Compound NOT metabolized

Test: The drug is tested on Bacteroides vulgatus strain: ATCC8482 for biotransformation. The drug concentrations were measured before and after a 12-h incubation by liquid-chromatography-coupled mass spectrometry (LC–MS)
Details: phocaeicola vulgatus, 2 µM

Compound	Bacterial Biotransformation
Cc1cc(C)cc(OCC2CNC(=O)O2)c1 (stereo unspecified) [METAXALONE]	Compound metabolized
Cc1ccc(/C(=C\CN2CCCC2)c2ccccn2)cc1 [TRIPROLIDINE]	Compound NOT metabolized

Details: bacteroides stercoris, 12 h, 2 µM
Description: The drug is tested on Bacteroides stercoris strain: ATCC43183 for biotransformation. The drug concentrations were measured before and after a 12-h incubation by liquid-chromatography-coupled mass spectrometry (LC–MS)

Compound	Bacterial Biotransformation
O=C(O[C@H]1C[C@H]2CC[C@@H](C1)[N+]21CCCC1)C(O)(c1ccccc1)c1ccccc1.[Cl-] [TROSPIUM CHLORIDE]	Compound NOT metabolized
Cc1ccc(/C(=C\CN2CCCC2)c2ccccn2)cc1 [TRIPROLIDINE]	Compound NOT metabolized
COc1ccc(/C=C/C(=O)Nc2ccccc2C(=O)O)cc1OC	Compound NOT metabolized

Test: The drug is tested on Subdoligranulum variabile strain: DSM15176 for biotransformation. The drug concentrations were measured before and after a 12-h incubation by liquid-chromatography-coupled mass spectrometry (LC–MS)
Details: 2 µM

Compound	Bacterial Biotransformation
O=C(O[C@H]1C[C@H]2CC[C@@H](C1)[N+]21CCCC1)C(O)(c1ccccc1)c1ccccc1.[Cl-] [TROSPIUM CHLORIDE]	Compound NOT metabolized
Cc1ccc(/C(=C\CN2CCCC2)c2ccccn2)cc1 [TRIPROLIDINE]	Compound NOT metabolized
COc1ccc(/C=C/C(=O)Nc2ccccc2C(=O)O)cc1OC	Compound NOT metabolized

Test: The drug is tested on Ruminococcus torques strain: ATCC27756 for biotransformation. The drug concentrations were measured before and after a 12-h incubation by liquid-chromatography-coupled mass spectrometry (LC–MS)
Type: ADME
Set-up: dose 2 uM, timepoint 0 vs 12 hours
Details: 2 µM

Compound	Bacterial Biotransformation
O=C(O[C@H]1C[C@H]2CC[C@@H](C1)[N+]21CCCC1)C(O)(c1ccccc1)c1ccccc1.[Cl-] [TROSPIUM CHLORIDE]	Compound NOT metabolized
Cc1ccc(/C(=C\CN2CCCC2)c2ccccn2)cc1 [TRIPROLIDINE]	Compound NOT metabolized
COc1ccc(/C=C/C(=O)Nc2ccccc2C(=O)O)cc1OC	Compound NOT metabolized

Details: anaerostipes sp., 12 h, 2 µM
Description: The drug is tested on Anaerostipes sp. strain: fecal isolate for biotransformation. The drug concentrations were measured before and after a 12-h incubation by liquid-chromatography-coupled mass spectrometry (LC–MS)

Compound	Bacterial Biotransformation
Cc1cc(C)cc(OCC2CNC(=O)O2)c1 (stereo unspecified) [METAXALONE]	Compound NOT metabolized
O=C(O[C@H]1C[C@H]2CC[C@@H](C1)[N+]21CCCC1)C(O)(c1ccccc1)c1ccccc1.[Cl-] [TROSPIUM CHLORIDE]	Compound NOT metabolized
Cc1ccc(/C(=C\CN2CCCC2)c2ccccn2)cc1 [TRIPROLIDINE]	Compound NOT metabolized
COc1ccc(/C=C/C(=O)Nc2ccccc2C(=O)O)cc1OC	Compound NOT metabolized

Test: The drug is tested on Clostridium symbiosum strain: ATCC14940 for biotransformation. The drug concentrations were measured before and after a 12-h incubation by liquid-chromatography-coupled mass spectrometry (LC–MS)
Details: 2 µM

Compound	Bacterial Biotransformation
Cc1cc(C)cc(OCC2CNC(=O)O2)c1 (stereo unspecified) [METAXALONE]	Compound NOT metabolized
O=C(O[C@H]1C[C@H]2CC[C@@H](C1)[N+]21CCCC1)C(O)(c1ccccc1)c1ccccc1.[Cl-] [TROSPIUM CHLORIDE]	Compound NOT metabolized
Cc1ccc(/C(=C\CN2CCCC2)c2ccccn2)cc1 [TRIPROLIDINE]	Compound NOT metabolized
COc1ccc(/C=C/C(=O)Nc2ccccc2C(=O)O)cc1OC	Compound NOT metabolized

Test: The drug is tested on Bacteroides uniformis strain: ATCC8492 for biotransformation. The drug concentrations were measured before and after a 12-h incubation by liquid-chromatography-coupled mass spectrometry (LC–MS)
Details: 2 µM

Compound	Bacterial Biotransformation
Cc1cc(C)cc(OCC2CNC(=O)O2)c1 (stereo unspecified) [METAXALONE]	Compound metabolized
O=C(O[C@H]1C[C@H]2CC[C@@H](C1)[N+]21CCCC1)C(O)(c1ccccc1)c1ccccc1.[Cl-] [TROSPIUM CHLORIDE]	Compound NOT metabolized
Cc1ccc(/C(=C\CN2CCCC2)c2ccccn2)cc1 [TRIPROLIDINE]	Compound NOT metabolized
COc1ccc(/C=C/C(=O)Nc2ccccc2C(=O)O)cc1OC	Compound NOT metabolized

Test: The drug is tested on Eubacterium hallii strain: DSM3353 for biotransformation. The drug concentrations were measured before and after a 12-h incubation by liquid-chromatography-coupled mass spectrometry (LC–MS)
Details: anaerobutyricum hallii, 2 µM

Compound	Bacterial Biotransformation
Cc1cc(C)cc(OCC2CNC(=O)O2)c1 (stereo unspecified) [METAXALONE]	Compound NOT metabolized
O=C(O[C@H]1C[C@H]2CC[C@@H](C1)[N+]21CCCC1)C(O)(c1ccccc1)c1ccccc1.[Cl-] [TROSPIUM CHLORIDE]	Compound NOT metabolized
Cc1ccc(/C(=C\CN2CCCC2)c2ccccn2)cc1 [TRIPROLIDINE]	Compound NOT metabolized
COc1ccc(/C=C/C(=O)Nc2ccccc2C(=O)O)cc1OC	Compound NOT metabolized

Details: bacteroides eggerthii, 12 h, 2 µM
Description: The drug is tested on Bacteroides eggerthii strain: DSM20697 for biotransformation. The drug concentrations were measured before and after a 12-h incubation by liquid-chromatography-coupled mass spectrometry (LC–MS)

Compound	Bacterial Biotransformation
O=C(O[C@H]1C[C@H]2CC[C@@H](C1)[N+]21CCCC1)C(O)(c1ccccc1)c1ccccc1.[Cl-] [TROSPIUM CHLORIDE]	Compound NOT metabolized
Cc1ccc(/C(=C\CN2CCCC2)c2ccccn2)cc1 [TRIPROLIDINE]	Compound NOT metabolized
COc1ccc(/C=C/C(=O)Nc2ccccc2C(=O)O)cc1OC	Compound NOT metabolized

Test: The drug is tested on Bacteroides xylanisolvens strain: DSM18836 for biotransformation. The drug concentrations were measured before and after a 12-h incubation by liquid-chromatography-coupled mass spectrometry (LC–MS)
Details: 2 µM

Compound	Bacterial Biotransformation
Cc1cc(C)cc(OCC2CNC(=O)O2)c1 (stereo unspecified) [METAXALONE]	Compound metabolized
O=C(O[C@H]1C[C@H]2CC[C@@H](C1)[N+]21CCCC1)C(O)(c1ccccc1)c1ccccc1.[Cl-] [TROSPIUM CHLORIDE]	Compound NOT metabolized
Cc1ccc(/C(=C\CN2CCCC2)c2ccccn2)cc1 [TRIPROLIDINE]	Compound NOT metabolized
COc1ccc(/C=C/C(=O)Nc2ccccc2C(=O)O)cc1OC	Compound NOT metabolized

Details: bacteroides thetaiotaomicron, 12 h, 2 µM
Description: The drug is tested on Bacteroides thetaiotaomicron strain: 7330 for biotransformation. The drug concentrations were measured before and after a 12-h incubation by liquid-chromatography-coupled mass spectrometry (LC–MS)

Compound	Bacterial Biotransformation
O=C(O[C@H]1C[C@H]2CC[C@@H](C1)[N+]21CCCC1)C(O)(c1ccccc1)c1ccccc1.[Cl-] [TROSPIUM CHLORIDE]	Compound NOT metabolized
Cc1ccc(/C(=C\CN2CCCC2)c2ccccn2)cc1 [TRIPROLIDINE]	Compound NOT metabolized

Test: The drug is tested on Collinsella intestinalis strain: DSM13280 for biotransformation. The drug concentrations were measured before and after a 12-h incubation by liquid-chromatography-coupled mass spectrometry (LC–MS)
Details: 2 µM

Compound	Bacterial Biotransformation
Cc1cc(C)cc(OCC2CNC(=O)O2)c1 (stereo unspecified) [METAXALONE]	Compound NOT metabolized
O=C(O[C@H]1C[C@H]2CC[C@@H](C1)[N+]21CCCC1)C(O)(c1ccccc1)c1ccccc1.[Cl-] [TROSPIUM CHLORIDE]	Compound NOT metabolized
Cc1ccc(/C(=C\CN2CCCC2)c2ccccn2)cc1 [TRIPROLIDINE]	Compound NOT metabolized
COc1ccc(/C=C/C(=O)Nc2ccccc2C(=O)O)cc1OC	Compound NOT metabolized

Test: The drug is tested on Bacteroides dorei strain: DSM17855 for biotransformation. The drug concentrations were measured before and after a 12-h incubation by liquid-chromatography-coupled mass spectrometry (LC–MS)
Details: phocaeicola dorei, 2 µM

Compound	Bacterial Biotransformation
Cc1cc(C)cc(OCC2CNC(=O)O2)c1 (stereo unspecified) [METAXALONE]	Compound metabolized
O=C(O[C@H]1C[C@H]2CC[C@@H](C1)[N+]21CCCC1)C(O)(c1ccccc1)c1ccccc1.[Cl-] [TROSPIUM CHLORIDE]	Compound NOT metabolized
Cc1ccc(/C(=C\CN2CCCC2)c2ccccn2)cc1 [TRIPROLIDINE]	Compound NOT metabolized
COc1ccc(/C=C/C(=O)Nc2ccccc2C(=O)O)cc1OC	Compound NOT metabolized

Test: The drug is tested on Anaerotruncus colihominis strain: DSM17241 for biotransformation. The drug concentrations were measured before and after a 12-h incubation by liquid-chromatography-coupled mass spectrometry (LC–MS)
Details: 2 µM

Compound	Bacterial Biotransformation
Cc1cc(C)cc(OCC2CNC(=O)O2)c1 (stereo unspecified) [METAXALONE]	Compound NOT metabolized
O=C(O[C@H]1C[C@H]2CC[C@@H](C1)[N+]21CCCC1)C(O)(c1ccccc1)c1ccccc1.[Cl-] [TROSPIUM CHLORIDE]	Compound NOT metabolized
Cc1ccc(/C(=C\CN2CCCC2)c2ccccn2)cc1 [TRIPROLIDINE]	Compound NOT metabolized
COc1ccc(/C=C/C(=O)Nc2ccccc2C(=O)O)cc1OC	Compound NOT metabolized

Details: parabacteroides distasonis, 12 h, 2 µM
Description: The drug is tested on Parabacteroides distasonis strain: ATCC8503 for biotransformation. The drug concentrations were measured before and after a 12-h incubation by liquid-chromatography-coupled mass spectrometry (LC–MS)

Compound	Bacterial Biotransformation
Cc1cc(C)cc(OCC2CNC(=O)O2)c1 (stereo unspecified) [METAXALONE]	Compound metabolized
O=C(O[C@H]1C[C@H]2CC[C@@H](C1)[N+]21CCCC1)C(O)(c1ccccc1)c1ccccc1.[Cl-] [TROSPIUM CHLORIDE]	Compound NOT metabolized
Cc1ccc(/C(=C\CN2CCCC2)c2ccccn2)cc1 [TRIPROLIDINE]	Compound NOT metabolized
COc1ccc(/C=C/C(=O)Nc2ccccc2C(=O)O)cc1OC	Compound NOT metabolized

Test: The drug is tested on Bacteroides sp. WH2 strain: WH2 for biotransformation. The drug concentrations were measured before and after a 12-h incubation by liquid-chromatography-coupled mass spectrometry (LC–MS)
Details: bacteroides sp. wh2, 12 h, 2 µM

Compound	Bacterial Biotransformation
Cc1cc(C)cc(OCC2CNC(=O)O2)c1 (stereo unspecified) [METAXALONE]	Compound NOT metabolized
O=C(O[C@H]1C[C@H]2CC[C@@H](C1)[N+]21CCCC1)C(O)(c1ccccc1)c1ccccc1.[Cl-] [TROSPIUM CHLORIDE]	Compound NOT metabolized
Cc1ccc(/C(=C\CN2CCCC2)c2ccccn2)cc1 [TRIPROLIDINE]	Compound NOT metabolized
COc1ccc(/C=C/C(=O)Nc2ccccc2C(=O)O)cc1OC	Compound metabolized

Test: The drug is tested on Clostridium sporogenes strain: ATCC15579 for biotransformation. The drug concentrations were measured before and after a 12-h incubation by liquid-chromatography-coupled mass spectrometry (LC–MS)
Details: 2 µM

Compound	Bacterial Biotransformation
Cc1cc(C)cc(OCC2CNC(=O)O2)c1 (stereo unspecified) [METAXALONE]	Compound NOT metabolized
O=C(O[C@H]1C[C@H]2CC[C@@H](C1)[N+]21CCCC1)C(O)(c1ccccc1)c1ccccc1.[Cl-] [TROSPIUM CHLORIDE]	Compound NOT metabolized
Cc1ccc(/C(=C\CN2CCCC2)c2ccccn2)cc1 [TRIPROLIDINE]	Compound NOT metabolized
COc1ccc(/C=C/C(=O)Nc2ccccc2C(=O)O)cc1OC	Compound NOT metabolized
